The text below walks through data of patent US20210292347A1, “DIHETEROCYCLIC TRIAZINONE NUCLEOSIDE ANALOGS AND THEIR USE FOR MEDICATION” (priority 2020, published 2021).

Like-named read-outs stand apart in the source and are kept apart here.

The test system of this assay is mice sarcoma S180. Put plainly: Growth inhibition of S180 sarcoma in mice. It counts as in vivo, Kunming healthy mice. The settings on record: for in-vivo anti-tumor efficacy, statistical significance (in words): S180 sarcoma in mice, doses and routes of Table 3.
Setting [1] is: Mus musculus, S-180, mice, ip, 100 mg/kg, read-out: Inhibition rate (%) S180 sarcoma.
Where [2] appears, read: Mus musculus, S-180, mice, ip, read-out: Inhibition rate (%) S180 sarcoma.
The mark [3] stands for this setting: Mus musculus, S-180, mice, iv, read-out: Inhibition rate (%) S180 sarcoma.

Regarding `N#Cc1nn(C(=N)N)c2c(=O)n(C3OC(CO)C(O)C3O)nnc12` (stereo not drawn) [Example 70, 7-cyano-3-(3,4-dihydroxy-5-(hydroxymethyl)tetrahydrofuran-2-yl)-4-oxo-3H-pyrazolo[4,3-d][1,2,3]triazine-5(4H)-carboximidamide], the “in-vivo anti-tumor efficacy, statistical significance (in words)” value is recorded as “statistically significant”. Also, the inhibition in vivo at 100 mg/kg under setting [1] is less than 40%.
Consider `CCOC(=O)c1nn(C(N)=S)c2c(=O)n(C3OC(CO)C(O)C3O)nnc12` (stereo not drawn) [Example 73, ethyl 5-carbamothioyl-3-(3,4-dihydroxy-5-(hydroxymethyl)tetrahydrofuran-2-yl)-4-oxo-4,5-dihydro-3H-pyrazolo[4,3-d][1,2,3]triazine-7-carboxylate], for which the “in-vivo anti-tumor efficacy, statistical significance (in words)” value was “statistically significant”. Further, the inhibition in vivo at 200 mg/kg under setting [2] was less than 40%.
As for `CCCc1nn(C(N)=S)c2c(=O)n(C3CCC(CO)O3)nnc12` (stereo not drawn) [Example 86, 3-(5-(hydroxymethyl)tetrahydrofuran-2-yl)-4-oxo-7-propyl-3H-pyrazolo[4,3-d][1,2,3]triazine-5(4H)-carbothioamide], the inhibition in vivo at 200 mg/kg under setting [2] is less than 20%.
Turning to `CN(C)CCC(=O)Nc1nn(C(N)=S)c2c(=O)n(C3OC(CO)C(O)C3O)nnc12` (stereo not drawn) [Example 76, N-(5-carbamothioyl-3-(3,4-dihydroxy-5-(hydroxymethyl)tetrahydrofuran-2-yl)-4-oxo-4,5-dihydro-3H-pyrazolo[4,3-d][1,2,3]triazin-7-yl)-3-(dimethylamino) propanamide], the “in-vivo anti-tumor efficacy, statistical significance (in words)” value was “statistically significant”. Further, the “Inhibition rate (%) S180 sarcoma” value (mice, ip, 400 mg/kg) was “++ (++ represent of Inhibition rate % <40)”.
On to `O=c1c2c(nnn1C1OC(CO)C(O)C1O)nnn2CO` (stereo not drawn) [Example 148, 6-(3,4-dihydroxy-5-(hydroxymethyl)tetrahydrofuran-2-yl)-1-(hydroxymethyl)-1H-[1,2,3]triazolo[4,5-d][1,2,3]triazin-7(6H)-one], for which, under setting [2], the inhibition in vivo at 200 mg/kg is less than 20%.
On to `NC(=O)n1nc(N)c2nnn(C3CSC(CO)O3)c(=O)c21` (stereo not drawn) [Example 98, 7-amino-3-(2-(hydroxymethyl)-1,3-oxathiolan-5-yl)-4-oxo-3H-pyrazolo[4,3-d][1,2,3]triazine-5(4H)-carboxamide], for which the inhibition in vivo at 70 mg/kg (Mus musculus, S-180, mice, ip, 70 mg/kg, read-out: Inhibition rate (%) S180 sarcoma) was less than 20%.
As for “2-(3,4-dihydroxy-5-(hydroxymethyl)tetrahydrofuran-2-yl)-7-hydroxy-5-propyl-2,7-dihydro-1H-pyrazolo[4,3-d][1,2,3]triazin-1-one [Example 14]”, the “in-vivo anti-tumor efficacy, statistical significance (in words)” value is “statistically significant”. For the same molecule, the “Inhibition rate (%) S180 sarcoma” value (mice, iv, 12.5 mg/kg) is given as “++ (++ represent of Inhibition rate % <40)”.
Take `CCCc1nn(O)c2c(=O)n(C3CCC(CO)O3)nnc12` (stereo not drawn) [Example 79, 5-hydroxy-3-(5-(hydroxymethyl)tetrahydrofuran-2-yl)-7-propyl-3H-pyrazolo[4,3-d][1,2,3]triazin-4(5H)-one]: the inhibition in vivo at 300 mg/kg (Mus musculus, S-180, mice, ip, 300 mg/kg, read-out: Inhibition rate (%) S180 sarcoma) is less than 20%.
`NC(=O)Cn1nc(N)c2nnn(C3OC(CO)C(O)C3O)c(=O)c21` (stereo not drawn) [Example 50, 2-(7-amino-3-(3,4-dihydroxy-5-(hydroxymethyl)tetrahydrofuran-2-yl)-4-oxo-3H-pyrazolo[4,3-d][1,2,3]triazin-5(4H)-yl)acetamide]: the “in-vivo anti-tumor efficacy, statistical significance (in words)” value is “statistically significant”. Besides, the inhibition in vivo at 15 mg/kg (Mus musculus, S-180, mice, iv, 15 mg/kg, read-out: Inhibition rate (%) S180 sarcoma) is less than 40%.
As to `CCCc1nn(C(N)=S)c2c(=O)n(C3OC(CO)C(O)C3O)nnc12` (stereo not drawn) [Example 74, 3-(3,4-dihydroxy-5-(hydroxymethyl)tetrahydrofuran-2-yl)-4-oxo-7-propyl-3H-pyrazolo[4,3-d][1,2,3]triazine-5(4H)-carbothioamide], the “in-vivo anti-tumor efficacy, statistical significance (in words)” value was “statistically significant”. In addition, the inhibition in vivo at 200 mg/kg under setting [2] is less than 40%.
With `CCCc1nn(C(=N)N)c2c(=O)n(C3OC(COP(=O)(O)OP(=O)(O)OP(=O)(O)O)C(O)C3O)nnc12` (stereo not drawn) [Example 140, (5-(5-carbamimidoyl-4-oxo-7-propyl-4,5-dihydro-3H-pyrazolo[4,3-d][1,2,3]triazin-3-yl)-3,4-dihydroxytetrahydrofuran-2-yl)methyl tetrahydrogen triphosphate], under setting [2], the inhibition in vivo at 200 mg/kg was less than 20%.
For the molecule `CCCc1nn(CC(N)=O)c2c(=O)n(C3OC(CO)C(O)C3O)nnc12` (stereo not drawn) [Example 49, 2-(3-(3,4-dihydroxy-5-(hydroxymethyl)tetrahydrofuran-2-yl)-4-oxo-7-propyl-3H-pyrazolo [4,3-d][1,2,3]triazin-5(4H)-yl)acetamide], the “in-vivo anti-tumor efficacy, statistical significance (in words)” value is reported as “statistically significant”. For the same molecule, the inhibition in vivo at 100 mg/kg under setting [1] is less than 40%.
Regarding `CCCc1nn(C)c2c(=O)n(C3OC(COC(C(=O)O)P(NC(C)C)OCC#N)C(O)C3O)nnc12` (stereo not drawn) [Example 120, 2-((cyanomethoxy)(isopropylamino)phosphino)-2-((3,4-dihydroxy-5-(5-methyl-4-oxo-7-propyl-4,5-dihydro-3H-pyrazolo[4,3-d][1,2,3]triazin-3-yl)tetrahydrofuran-2-yl)methoxy)acetic acid], the “in-vivo anti-tumor efficacy, statistical significance (in words)” value was “statistically significant”. Moreover, the inhibition in vivo at 12.5 mg/kg (Mus musculus, S-180, mice, iv, 12.5 mg/kg, read-out: Inhibition rate (%) S180 sarcoma) was less than 40%.
In the case of `CCOC(=O)c1nn(CO)c2c(=O)n(C3OC(CO)C(O)C3O)nnc12` (stereo not drawn) [Example 30, ethyl 3-(3,4-dihydroxy-5-(hydroxymethyl)tetrahydrofuran-2-yl)-5-(hydroxymethyl)-4-oxo-4,5-dihydro-3H-pyrazolo [4,3-d][1,2,3]triazine-7-carboxylate], the “in-vivo anti-tumor efficacy, statistical significance (in words)” value is given as “statistically significant”. For the same molecule, the inhibition in vivo at 400 mg/kg (Mus musculus, S-180, mice, ip, 400 mg/kg, read-out: Inhibition rate (%) S180 sarcoma) is less than 40%.
`O=c1c2c(nnn1C1OC(CO)C(O)C1O)c([N+](=O)[O-])nn2CO` (stereo not drawn) [Example 36, 3-(3,4-dihydroxy-5-(hydroxymethyl)tetrahydrofuran-2-yl)-5-(hydroxymethyl)-7-nitro-3H-pyrazolo [4,3-d][1,2,3]triazin-4(5H)-one]: the “in-vivo anti-tumor efficacy, statistical significance (in words)” value is reported as “statistically significant”. The inhibition in vivo at 200 mg/kg under setting [2] was less than 40%.
As to `O=c1c2c(nnn1C1OC(CO)C(O)C1O)c(N1CCCCC1)nn2O` (stereo not drawn) [Example 18, 3-(3,4-dihydroxy-5-(hydroxymethyl)tetrahydrofuran-2-yl)-5-hydroxy-7-(piperidin-1-yl)-3H-pyrazolo [4,3-d][1,2,3]triazin-4(5H)-one], the inhibition in vivo at 200 mg/kg under setting [2] was less than 20%.
`CCOC(=O)c1nn(CC(N)=O)c2c(=O)n(C3OC(CO)C(O)C3O)nnc12` (stereo not drawn) [Example 48, ethyl 5-(2-amino-2-oxoethyl)-3-(3,4-dihydroxy-5-(hydroxymethyl)tetrahydrofuran-2-yl)-4-oxo-4,5-dihydro-3H-pyrazolo[4,3-d][1,2,3]triazine-7-carboxylate]: the “in-vivo anti-tumor efficacy, statistical significance (in words)” value was “statistically significant”. For the setting “Mus musculus, S-180, mice, iv, 50 mg/kg, read-out: Inhibition rate (%) S180 sarcoma”, the inhibition in vivo at 50 mg/kg is less than 40%.
As for `N=C(N)n1nc([N+](=O)[O-])c2nnn(C3OC(CO)C(O)C3O)c(=O)c21` (stereo not drawn) [Example 72, 3-(3,4-dihydroxy-5-(hydroxymethyl)tetrahydrofuran-2-yl)-7-nitro-4-oxo-3H-pyrazolo[4,3-d][1,2,3]triazine-5(4H)-carboximidamide], the “in-vivo anti-tumor efficacy, statistical significance (in words)” value was “statistically significant”. Also, the inhibition in vivo at 25 mg/kg (Mus musculus, S-180, mice, iv, 25 mg/kg, read-out: Inhibition rate (%) S180 sarcoma) was less than 40%.
Consider `CC(=O)O[C@H]1C(=O)[C@@]2(C)[C@H]([C@H](OC(=O)c3ccccc3)[C@]3(O)C[C@H](OC(=O)[C@H](O)[C@@H](NC(=O)c4ccccc4)c4ccccc4)C(C)=C1C3(C)C)[C@]1(OC(C)=O)CO[C@@H]1C[C@@H]2O` [Taxol, Paclitaxel, reference compound], for which the inhibition in vivo at 20 mg/kg under setting [2] was less than 40%.
As to `Nc1nn(CO)c2c(=O)n(C3OC(CO)C(O)C3O)nnc12` (stereo not drawn) [Example 32, 7-amino-3-(3,4-dihydroxy-5-(hydroxymethyl)tetrahydrofuran-2-yl)-5-(hydroxymethyl)-3H-pyrazolo [4,3-d][1,2,3]triazin-4(5H)-one], the “in-vivo anti-tumor efficacy, statistical significance (in words)” value was “statistically significant”. In addition, the inhibition in vivo at 30 mg/kg under setting [3] is less than 40%.
As to `CN(C)CCC(=O)Nc1nn(O)c2c(=O)n(C3OC(CO)C(O)C3O)nnc12` (stereo not drawn) [Example 16, N-(3-(3,4-dihydroxy-5-(hydroxymethyl)tetrahydrofuran-2-yl)-5-hydroxy-4-oxo-4,5-dihydro-3H-pyrazolo[4,3-d][1,2,3]triazin-7-yl)-3-(dimethylamino) propanamide], where the note is “mice, ip, 100 mg/kg”, the “Inhibition rate (%) S180 sarcoma” value is on record as “+ (+ represent of Inhibition rate % <20)”.
Turning to `CCOP(=O)(OCC)C(Nc1nn(C)c2c(=O)n(C3CSC(CO)O3)nnc12)C(=O)O` (stereo not drawn) [Example 90, 2-(diethoxyphosphoryl)-2-((3-(2-(hydroxymethyl)-1,3-oxathiolan-5-yl)-5-methyl-4-oxo-4,5-dihydro-3H-pyrazolo[4,3-d][1,2,3]triazin-7-yl)amino)acetic acid], the inhibition in vivo at 30 mg/kg under setting [3] was less than 20%.
As for `CCOP(=O)(OCC)C(C(=O)O)n1nc(N)c2nnn(C3CCC(CO)O3)c(=O)c21` (stereo not drawn) [Example 83, 2-(7-amino-3-(5-(hydroxymethyl)tetrahydrofuran-2-yl)-4-oxo-3H-pyrazolo[4,3-d][1,2,3]triazin-5(4H)-yl)-2-(diethoxyphosphoryl)acetic acid], under setting [3], the inhibition in vivo at 20 mg/kg was less than 20%.
